# In PMC9762789, “Chromone-based monoamine oxidase B inhibitor with potential iron-chelating activity for the treatment of Alzheimer’s disease” (Journal of Enzyme Inhibition and Medicinal Chemistry, 2022):
# Read-outs that look alike come from different tables or passages of the source.
# Legend:
# [1] = Pharmacokinetic study and brain distribution (UHPLC-MS/MS); format: in vivo; conditions: rats; for AUC(0-t): read-out: AUC0–24; for MRT inf: read-out: MRT0–∞
# Protocol: UHPLC-MS/MS method was adopted to investigate the pharmacokinetic profiles of its metabolites after intravenous (i.v.) administration (2.34 mg/kg) and intragastric (i.g.) administration (15 mg/kg) of 17d in the tail vein of rats.
# Rats were purchased from the Zhejiang Academy of Medical Sciences (Hangzhou, China). All rats were kept strictly following the requirements of experimental animal operation instructions, kept at a temperature (22 ± 2 °C), day/night cycle every 12 h in a constant environment. 12 h before the experiment, the rats were fasted but free to drink. For each rat, retro-orbital blood samples (0.2 ml) were obtained into EDTA soaked polythene tubes before drug administration and at time points of 0.083, 0.25, 0.50, 0.75, 1.0, 2.0, 4.0, 6.0, 8.0, 10, 12, and 24 h post-dosing. The collected blood samples were immediately centrifuged at 3500 rpm for 10 min at room temperature to separate plasma, and stored in a −80 °C refrigerator before use. […] The tissue was weighed and homogenised under ice bath conditions and was collected for further processing.
# Biological samples were performed with ACQUITY UPLC® H Class system, which was coupled to an Xevo TQ-S micro triple quadrupole mass spectrometer (Waters, Milford, MA, USA) with an ESI source and MassLynx^TM Workstation software version 4.2 (Waters, Milford, MA, USA). We used a BEH Shield RP C18 column (100 × 2.1 mm, 1.7 µm, Waters, Milford, MA, USA) for chromatographic separation, and the column temperature is kept at 30 °C. The mobile phase was composed of 30%, 0.2% formic acid aqueous solution (A) and 70%, 0.3% formic acid methanol solution (B) and is delivered at a flow rate of 0.2 ml/min. The temperature of the autosampler is set to 30 °C. The sample injection volume is 5 µl. Pharmacokinetic parameters of the analytes were calculated using the pharmacokinetic software DAS version 2.0 (Bontz Inc., Beijing, China). All data were expressed as mean ± SD.
# [2] = iron (III) affinity constants and pFe3+ by spectrophotometric titration; format: physicochemical
# [3] = pKa determination by automated spectrophotometric titration; format: physicochemical; conditions: 0.1 M KCl solution
# PAMPA-BBB assay = format: in vitro ADME
# From the text: Good blood–brain barrier (BBB) permeability is the key to exerting drug efficacy in the treatment of central nervous system diseases. To evaluate whether the target compound could penetrate BBB, a parallel artificial membrane permeability assay (PAMPA) was used to predict[32]^,[33]. […] Therefore, due to its potential ability to cross the BBB, compound 17d was selected for subsequent assay.
# PAMPA was used to predict the BBB permeability of the screened compound. The detailed process has been mentioned in our early work[32]^,[33].
# [4] = rat, plasma, iv, i.v. 2.34 mg/kg, mean ± SD, n = 3
# [5] = rat, plasma, po, i.g. 15 mg/kg, mean ± SD, n = 3
# [6] = DMSO: KCl (0.1 M) = 1:1.5 (v/v)
smiles,measurement,setting,value
"COc1ccc2c(=O)c(CNCCn3ccc(=O)c(O)c3C)coc2c1 [Compound 17d, 3-Hydroxy-1–(2-(((7-methoxy-4-oxo-4H-chromen-3-yl)methyl)amino)ethyl)-2-methylpyridin-4(1H)-one]",AUC(0-inf),[1]; [4],749 ± 87.1 ng·h/mL
same,Cmax,[1]; [4],2150 ± 637 ng/mL
same,Tmax,[1]; [4],4.98 min
same,clearance,[1]; [4],52.5 mL/min/kg
same,half-life,[1]; [4],19.2 min
same,AUC(0-t),[1]; [4],745 ± 88.4 ng·h/mL
same,MRT inf,[1]; [4],15 ± 4.8 min
same,bioavailability,"[1]; rat, plasma, oral, i.g. 15 mg/kg vs i.v. 2.34 mg/kg, read-out: F (bioavailability)",9.25%
same,AUC(0-inf),[1]; [5],444 ± 65.3 ng·h/mL
same,Cmax,[1]; [5],390 ± 50.1 ng/mL
same,Tmax,[1]; [5],15 min
same,half-life,[1]; [5],30.6 ± 10.8 min
same,AUC(0-t),[1]; [5],439 ± 59.6 ng·h/mL
same,MRT inf,[1]; [5],48.6 ± 5.4 min
same,Brain 17d content,"[1]; i.g. 15 mg/kg, collected at Cmax time point",6.02 ± 0.08 ng/g
same,V,"[1]; i.v. 2.34 mg/kg, mean ± SD, n = 3",1.46 ± 0.19 L/kg
same,Log β1,[2]; [6],13.50
same,Log β2,[2]; [6],25.21
same,Log β3,[2]; [6],35.13
same,pFe^3+,[2]; calculated from Log β values obtained in DMSO: KCl (0.1 M) = 1:1.5 (v/v),18.52
same,pKa,[3]; read-out: pKa1,2.86
same,pKa,[3]; read-out: pKa2,9.78
same,Papp,"PAMPA-BBB assay; PAMPA-BBB, mean ± SEM of eight independent experiments, read-out: Pe ± SEM",2.73 ± 0.07 ×10⁻⁶ cm/s
same,CNS,PAMPA-BBB assay; class from PAMPA-BBB Pe,± (CNS (±) (BBB permeation uncertain); Pe (× 10^−6 cm s^−1) from 2.0 to 4.0)
